Experimental data: article PMC10897015, “Investigation of anti-nociceptive, anti-inflammatory potential and ADMET studies of pure compounds isolated from Isodon rugosus Wall. ex Benth” (Frontiers in Pharmacology, 2024)
Values joined by “and” are separate entries in the source; they are usually repeats but may differ in a detail not shown here. Equal entries are not always repeated.

Columns and labels:
5-LOX = biological target: T1, 5-LOX (Glycine max, UniProt P08170); experiment: Lipoxygenase (5-LOX) inhibitory activity; format: biochemical
T1 sequence (P08170 1-839): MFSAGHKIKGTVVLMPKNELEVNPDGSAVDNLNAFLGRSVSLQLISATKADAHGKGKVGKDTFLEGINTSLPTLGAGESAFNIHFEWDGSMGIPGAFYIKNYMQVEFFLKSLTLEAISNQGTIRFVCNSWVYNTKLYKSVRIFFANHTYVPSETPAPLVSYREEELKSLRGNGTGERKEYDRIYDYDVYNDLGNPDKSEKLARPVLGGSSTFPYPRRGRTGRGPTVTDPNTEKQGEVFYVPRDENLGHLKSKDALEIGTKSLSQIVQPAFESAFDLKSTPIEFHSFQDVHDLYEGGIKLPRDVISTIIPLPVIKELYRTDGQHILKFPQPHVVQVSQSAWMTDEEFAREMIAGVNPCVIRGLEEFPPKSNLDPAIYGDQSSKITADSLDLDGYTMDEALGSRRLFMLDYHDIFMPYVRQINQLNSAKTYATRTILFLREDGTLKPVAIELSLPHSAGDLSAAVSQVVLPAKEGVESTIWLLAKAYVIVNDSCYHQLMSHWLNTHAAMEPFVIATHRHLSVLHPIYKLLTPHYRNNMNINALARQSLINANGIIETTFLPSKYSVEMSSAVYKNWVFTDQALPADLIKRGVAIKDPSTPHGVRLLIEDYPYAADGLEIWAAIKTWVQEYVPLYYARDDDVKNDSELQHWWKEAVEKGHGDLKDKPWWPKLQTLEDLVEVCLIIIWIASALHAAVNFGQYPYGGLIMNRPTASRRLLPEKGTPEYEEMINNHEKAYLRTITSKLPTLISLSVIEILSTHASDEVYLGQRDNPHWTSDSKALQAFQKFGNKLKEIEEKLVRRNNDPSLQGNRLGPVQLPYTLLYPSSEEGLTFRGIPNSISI
Experimental: The enzyme solution with a concentration of 10,000 U/ml was prepared. […] A solution (80 mM) of linoleic acid (substrate) was made. Likewise, a 50 mM phosphate buffer solution with a pH of 6.3 was prepared. The substrate, enzyme, and buffer were combined in equal proportions, each in a 2 ml volume. […] The inhibition percentage was determined by comparing the absorbance of the test samples with that of the positive control.

Swiss albino mice [1] = experiment: Formalin test with opioid receptor involvement; format: in vivo; details: for formalin induced pain, licking time, individual values: single animals; for Total time spent in licking 0–5 min: first phase; for Total time spent in licking 0–5 min / Total time spent in licking 15–30 min: compounds 50 mg/kg, Mor 5 mg/kg, Nal 1 mg/kg; for Total time spent in licking 15–30 min: second phase
Experimental: An anti-nociceptive assessment was performed on Swiss albino mice of both sexes, sourced from the National Institute of Health, Islamabad, Pakistan. […] Mice of either sex were divided into different groups, with five mice in each group. […]
The analgesic activity of I. rugosus was assessed through a formalin-induced licking test. The test samples were administered orally at specified doses.

Swiss albino mice [2] = experiment: Hot plate test with opioid receptor involvement; format: in vivo; details: for Reaction time on hot plate, individual values: single animals; for Reaction time on the hot plate: compounds 50 mg/kg, Mor 5 mg/kg, Nal 1 mg/kg
Swiss albino mice [3] = experiment: Hot plate test, involvement of adrenergic receptors; format: in vivo; details: single animals
Experimental: The analgesic effects of the isolated compounds were measured using the hot plate method at a monitored temperature of 55 ± 0.2°C. The Swiss albino mice were positioned on the heated surface of the hot plate, and the period from placement to the onset of licking their hind paws or starting jump movements was noted as the response latency (thermal reactions). The test compounds were injected intraperitoneally. […] The animal models were checked for thermal reactions at various time intervals after sample administration.
The outcomes of the positive control and tested compounds were compared in animals pretreated with yohimbine. […] Additionally, clonidine at a dose of 3 μg/kg was intravenously administered. The animals were then subjected to the hot plate method, as reported before.

mice = experiment: Carrageenan-induced paw edema; format: in vivo; details: for % edema volume inhibition (mean): aspirin 10 mg/kg; for Paw edema percent inhibition, individual values / Paw edema, individual values: single animals
Experimental: The animals under study were divided into different groups. Prior to the experiment, the animals had only access to water. […] Additionally, the isolated compounds being tested were given 30 min before injecting 0.05 ml of 1% carrageenan into the sub-plantar region of the paw. To measure the volume changes in the paw, a digital plethysmometer was employed. Readings were taken before and after the carrageenan injection at hourly intervals over a total period of 5 h.

O=C(CCc1ccc(O)cc1)c1c(O)cc(O)cc1O [Compound 2, 2-4-4-6-tetrahydroxy-dihydrochalcone]
inhibition at 62.5 µg/mL (5-LOX; read-out: % inhibition 5-LOX (mean ± SEM), 62.5 µg/ml): 21.1 ± 0.9% | inhibition at 250 µg/mL (5-LOX; read-out: % inhibition 5-LOX (mean ± SEM), 250 µg/ml): 31.1 ± 0.2% | inhibition at 500 µg/mL (5-LOX; read-out: % inhibition 5-LOX (mean ± SEM), 500 µg/ml): 36.7 ± 0.67% | inhibition at 1000 µg/mL (5-LOX; read-out: % inhibition 5-LOX (mean ± SEM), 1000 µg/ml): 41.43 ± 0.38% | formalin induced pain, licking time, individual values (Swiss albino mice [1]; 0-5 minutes, listed as Comp 2): 51.46 and 50.12 and 53.09 | formalin induced pain, licking time, individual values (Swiss albino mice [1]; 15-30 minutes, listed as Comp 2): 66.34 and 68.12 and 69.02 | Total time spent in licking 0–5 min (Swiss albino mice [1]): 51.55 ± 0.99 s | Total time spent in licking 0–5 min (Swiss albino mice [1]; listed as Comp 2): 51.5567 s | Total time spent in licking 15–30 min (Swiss albino mice [1]): 67.83 ± 0.57 s | Total time spent in licking 15–30 min (Swiss albino mice [1]; listed as Comp 2): 67.8267 s | Reaction time on hot plate, individual values (Swiss albino mice [2]; at 15, listed as Comp-2): 3.02 and 3.9 and 4.6 | Reaction time on hot plate, individual values (Swiss albino mice [2]; at 30, listed as Comp-2): 4.1 and 4.17 and 5.3 | Reaction time on hot plate, individual values (Swiss albino mice [2]; at 45, listed as Comp-2): 3.12 and 2.58 and 4.1 | Reaction time on hot plate, individual values (Swiss albino mice [2]; at 60, listed as Comp-2): 2.3 | Reaction time on hot plate, individual values (Swiss albino mice [2]; at 90, listed as Comp-2): 2.06 and 2.49 and 3.99 | Reaction time on the hot plate (Swiss albino mice [2]; at 15 min): 03.84 ± 0.03 s | Reaction time on the hot plate (Swiss albino mice [2]; at 15 min, listed as Comp-2): 3.84 s | Reaction time on the hot plate (Swiss albino mice [2]; at 30 min): 04.52 ± 0.09 s | Reaction time on the hot plate (Swiss albino mice [2]; at 30 min, listed as Comp-2): 4.523 s | Reaction time on the hot plate (Swiss albino mice [2]; at 45 min): 3.27 ± 0.48 s | Reaction time on the hot plate (Swiss albino mice [2]; at 45 min, listed as Comp-2): 3.267 s | Reaction time on the hot plate (Swiss albino mice [2]; at 60 min): 3.18 ± 0.34 s | Reaction time on the hot plate (Swiss albino mice [2]; at 60 min, listed as Comp-2): 3.183 s | Reaction time on the hot plate (Swiss albino mice [2]; at 90 min): 2.85 ± 0.29 s | Reaction time on the hot plate (Swiss albino mice [2]; at 90 min, listed as Comp-2): 2.847 s | Hot plate analysis (adrenergic), individual values (Swiss albino mice [3]; 30 Minutes): 3.19 and 3.88 and 3.2 | Hot plate analysis (adrenergic), individual values (Swiss albino mice [3]; 45 Minutes): 4.32 and 3.32 and 3.1 | Hot plate analysis (adrenergic), individual values (Swiss albino mice [3]; 15 minutes): 2.32 and 1.9 and 3.49 | Hot plate analysis (adrenergic), individual values (Swiss albino mice [3]; 60 minutes): 3.2 and 2.9 and 4.02 | Hot plate analysis (adrenergic), individual values (Swiss albino mice [3]; 90 minutes): 3.1 and 2.75 and 3.61 | % edema volume inhibition (mean) (mice; 1st hour after carrageenan, listed as Comp 2): 36.72% | % edema volume inhibition (mean) (mice; 2nd hour after carrageenan): 37.45% | % edema volume inhibition (mean) (mice; 3rd hour after carrageenan): 39.6788% | % edema volume inhibition (mean) (mice; 4th hour after carrageenan): 32.922% | % edema volume inhibition (mean) (mice; 5th hour after carrageenan): 29.246% | Paw edema percent inhibition, individual values (mice; hour 1, listed as Comp 2): 42.03% and 38.64% and 36.29% and 31.91% and 34.73% | Paw edema, individual values (mice; hour 1, listed as Comp 2): 0.44 and 0.47 and 0.488 and 0.521 and 0.5 | Paw edema percent inhibition, individual values (mice; hour 2, listed as Comp 2): 38.57% and 37.62% and 36.26% and 39.35% | Paw edema, individual values (mice; hour 2, listed as Comp 2): 0.454 and 0.461 and 0.471 and 0.45 and 0.457 | Paw edema percent inhibition, individual values (mice; hour 3, listed as Comp 2): 40.08% and 38.48% and 38.75% and 40.75% and 40.334% | Paw edema, individual values (mice; hour 3, listed as Comp 2): 0.45 and 0.462 and 0.46 and 0.445 and 0.449 | Paw edema percent inhibition, individual values (mice; hour 4, listed as Comp 2): 32.11% and 31.19% and 31.85% and 32.63% and 36.83% | Paw edema, individual values (mice; hour 4, listed as Comp 2): 0.518 and 0.525 and 0.52 and 0.514 and 0.482 | Paw edema percent inhibition, individual values (mice; hour 5, listed as Comp 2): 29.96% and 29.27% and 30.23% and 28.18% and 28.59% | Paw edema, individual values (mice; hour 5, listed as Comp 2): 0.512 and 0.517 and 0.51 and 0.525 and 0.522
